Species on record: Homo sapiens
Experiment: Hallucinogenic activity in human
Format: functional

| SMILES | log(activity) |
| --- | --- |
| CCCCc1cc(OC)c(CC(C)N)cc1OC (stereo not given) | 1.63 |
| CCc1cc(OC)c(CC(C)N)cc1OC (stereo not given) | 2.01 |
| CCOc1cc(OC)c(CC(C)N)cc1OC (stereo not given) | 1.22 |
| COc1cc(CC(C)N)c(OC)c(OC)c1 (stereo not given) | 0.63 |
| CCCc1cc(OC)c(CC(C)N)cc1OC (stereo not given) | 1.94 |
| COc1cc(CC(C)N)c(OC)c2c1OCO2 (stereo not given) | 1.13 |
| COc1cc2c(cc1CC(C)N)OCO2 (stereo not given) | 1.08 |
| COc1ccc(CC(C)N)cc1 (stereo not given) [PARA-METHOXYAMPHETAMINE] | 0.59 |
| COc1cc(CC(C)N)c(OC)c(OC)c1OC (stereo not given) | 0.86 |
| COc1c(CC(C)N)cc2c(c1OC)OCO2 (stereo not given) | 0.75 |
| COc1cc(CC(C)N)cc(OC)c1OC (stereo not given) | 0.37 |
| COc1c(CC(C)N)ccc2c1OCO2 (stereo not given) | 1 |
| COc1cc(OC)c(CC(C)N)c(OC)c1 (stereo not given) | 1.03 |
| COc1cc(CC(C)N)c(OC)cc1Br (stereo not given) [BROLAMFETAMINE] | 2.71 |
| COc1ccc(CC(C)N)c2c1OCO2 (stereo not given) | 0.48 |
| COc1cc(OC)c(OC)cc1CC(C)N (stereo not given) | 1.26 |
| COc1ccc(CC(C)N)c(OC)c1 (stereo not given) | 0.67 |
| CCCCCc1cc(OC)c(CC(C)N)cc1OC (stereo not given) | 1.09 |
| COc1ccc(OC)c(CC(C)N)c1 (stereo not given) | 0.87 |
| COc1cc(CC(C)N)cc2c1OCO2 (stereo not given) | 0.43 |
| COc1cc(CC(C)N)c(OC)cc1C (stereo not given) [DOM] | 1.89 |
| COc1ccc(OC)c(OC)c1CC(C)N (stereo not given) | 1.14 |
| CC(N)Cc1ccc2c(c1)OCO2 (stereo not given) [TENAMFETAMINE] | 0.41 |

Species on record: Homo sapiens
Experiment: Hallucinogenic activity in human relative to mescaline
Format: functional

| SMILES | Ratio |
| --- | --- |
| COc1ccc(CC(C)N)cc1OC (stereo not given) | 2 |
| CCOc1cc(CC(C)N)c(OC)cc1OC (stereo not given) | 7 |
| CN(C)CCc1c[nH]c2cc(O)ccc12 | 25 |
| COc1c(CCN)ccc2c1OCO2 | 5 |
| COc1ccc(CC(C)N)c(OC)c1OC (stereo not given) | 2 |
| COc1ccc(CCN)cc1OC | 0.2 |
| COc1c(CC(C)N)ccc2c1OCO2 (stereo not given) | 1 |
| COc1ccc(CCN)cc1 | 1 |
| CN(C)CCc1c[nH]c2cccc(O)c12 [PSILOCIN] | 32 |
| COc1cc(CCN)c2c(c1)OCO2 | 1 |
| COc1cc(OC)c(OC)cc1CCN | 1 |
| CCOc1cc2c(cc1CC(C)N)OCO2 (stereo not given) | 7 |

From ChEMBL document CHEMBL3244089, “Structure-activity studies on hallucinogenic amphetamines using molecular connectivity” (1977)
